# Patent publication US4464354A, “(3,4-c)-Pyrido psoralens, process of preparation, application in cosmetology and therapeutics, and cosmetological and pharmaceutical composition with them” (Institut National de la Sante et de la Recherche Medicale, priority 1982, dated 1984)
# “Also recorded” adds a separate entry of the source.
# Legend:
# [1] = system: Saccharomyces cerevisiae yeast; assay: induction of forward mutations (resistance to canavanine); assay type: cell-based
# Method: This photobiological activity has in effect been defined by the induction of lethal effects, the induction of "small colony" cytoplasmic mutations (damage in the mitochondrial DNA) and the induction of nuclear mutations (reverse and forward). The experiments were conducted in the customary manner in conformity with the following references: […]
# [2] = system: yeast mutant pso2; assay: sensitivity of yeast mutant pso2 versus wild type to photo-addition
# [3] = system: synthesis of RNA; assay: photosensitizer effect on RNA synthesis in human fibroblasts; assay type: cell-based; conditions: UVA 365 nm
# Source text: (§1) (F. Bordin, F. Baccichetti and L. Musajo, Experientia 28, 148 (1972)).
# (§2) The cells cultivated in Petri dishes having a minimum Eagle medium with 10% embryonic calf serum were marked by precursors which were specific to the exponential phase of growth. The rates of synthesis were estimated by measuring the incorporation of the radioactive precursors in the acid-precipitable material (see S. Nocentini, Biochim. Biophys., Acta 521, 160 (1978)).
# [4] = system: haploid strain of Saccharomyces cerevisiae yeast; assay: induction of nuclear mutations: His+ reversions; assay type: cell-based; conditions: 5×10^-6 M, same survivor rate
# Method: (§3) This photobiological activity has in effect been defined by the induction of lethal effects, the induction of "small colony" cytoplasmic mutations (damage in the mitochondrial DNA) and the induction of nuclear mutations (reverse and forward). The experiments were conducted in the customary manner in conformity with the following references:
# The induction of nuclear mutations (reversions and "forward" mutations) has been determined according to procedures described in the above-mentioned articles.
# [5] = system: V79 chinese hamster cells; assay: antiproliferatory effect: inhibition of colony formation of V79 cells; assay type: cell-based; conditions: 5×10^-6 M
# Method: The photobiological activity of the two monofunctional componds 1a and 1b have been studied in mammalian cells in vitro in order to determine their antiproliferatory effect.
# A diploid strain of V79 chinese hamster cells were used.
# The action of the compounds on cell survival (i.e. the antiproliferatory effect) was determined by measuring their power to inhibit the capacity of cells to form colonies. The technique used is that described by C.
# [6] = system: DNA; assay: complexation with DNA by absorption and emission spectroscopy; assay type: binding
# [7] = system: normal human skin; assay: erythema test on normal human skin (forearm); assay type: in vivo
# Method: The clinical and therapeutic activity of compounds 1a and 1b has been also measured on human skin. 10 mg of compounds 1a and 1b were diluted in 2 g of a purified lanolin commercially available under the name ROC hydrocerine which was made liquid by heating to 60° C. This local preparation was first tested on normal human skin (of the forearm). An amount of 10 micrograms/cm2 of products 1a and 1b was applied to a circular cutaneous surface 3 cm in diameter. The two products were left on the skin for 2 hours to insure a sufficient cutaneous penetration. […] The same experiment was repeated a second time with irradiation of 20 J/cm2 through a glass plate in order to filter out all the ultraviolet B radiation. […] This erythema, slightly apparent, continued for 18 days. […] The […] result of the reflective photoplethysmograph were totally identical for products 1a and 1b. […] The […] only appeared in doses of irradiation where are twice that customarily used in a therapeutic treatment.
# [8] = system: normal skin; assay: pigmentogenic properties on normal skin; assay type: in vivo, human; conditions: 0.5%
# Source text: The pigmentogenic properties of products 1a and 1b have been tested on normal skin at a concentration of 0.5%.
# [9] = photochemical stability under ultraviolet irradiation; assay type: physicochemical; conditions: free in solution, ultraviolet irradiation up to an incident dose of 27 kJ/m2
# [10] = system: mitochondrial DNA; assay: induction of "small colony" cytoplasmic mutations; assay type: cell-based, Saccharomyces cerevisiae; conditions: in 10% of the survivors
# Method: as §3
# If the induction of cytoplasmic mutations is considered as a function of the survivors, the compounds 1a and 1b which are monofunctional derivatives of psoralen, show in 10% of the survivors a rate of induction of cytoplasmic mutation greater than 50%.
# [11] = system: DNA of cells of the wild type; assay: direct biochemical verification of cross-linking in DNA of cells treated and irradiated at 365 nm; assay type: cell-based, yeast
# Source text: Indeed, DNA of cells of the wild type were extracted immediately after treatment with products 1a, 1b at a concentration of 10^-5 M and irradiation with two doses of radiation at 365 nm (30% and 5% survival rate). […] If the DNA contains cross-links it renatures itself and is found in the double chain form separable by gradient density from single chain DNA.
# [12] = system: psoriatic plaque; assay: therapeutic test on psoriatic plaque, products 1a and 1b; assay type: in vivo, human
# Method: 10 mg of compounds 1a and 1b were diluted in 2 g of a purified lanolin commercially available under the name ROC hydrocerine which was made liquid by heating to 60° C. Products 1a and 1b have also been tested in the same excipient on a high inflammatory psoriatic plaque. These two products were applied to surfaces having a 3 cm diameter. On a third surface the excipient alone was applied. […] The products and the lanolin alone were applied 2 hours before irradiation. […] This whitening was practically as fast in the zones treated with products 1a and 1b. The zone treated with lanolin alone remained unchanged.
# [13] = mutagenicity (general statements)
# [14] = system: DNA; assay: thermal denaturation-renaturation of DNA modified in the presence of UVA; assay type: biochemical
# Source text: Experiments of thermal denaturation-renaturation carried out on the DNA Modified by the compound 1a in the presence of UVA (incident dose ranging up to 27 Kj/m2) yielding values of the non-renaturating fraction of 100%.
# [15] = system: DNA; assay: formation of cross-links in DNA (general statements); assay type: biochemical; conditions: from induction of cytoplasmic and nuclear mutations
# [16] = system: synthesis of DNA; assay: photosensitizer effect on DNA synthesis in human fibroblasts; assay type: cell-based; conditions: UVA 365 nm
# Source text: as §1, §2
# [17] = system: DNA; assay: photoaffinity for DNA in vivo; assay type: cell-based, yeast
# [18] = spectroscopic absorption properties; assay type: physicochemical; conditions: compared with psoralen
# Source text: Compounds 1a and 1b have similar spectroscopic properties which differ markedly with respect to those of psoralen.
# [19] = system: Saccharomyces cerevisiae yeast; assay: induction of lethal effects in yeast with 365 nm irradiation (UVA); assay type: cell-based
# Method: as §3
# Thus, the dose of UVA must be between 2.5 and 5 times weaker in the case of compounds 1a and 1b than in the case of 8-MOP to attain the same survival rate.
# [20] = 10 micrograms/cm2, UVA 20 J/cm2
# [21] = 30 micrograms/cm2, by the tenth treatment
# [22] = 30 micrograms/cm2, from the fourth treatment
structure (smiles),measurement,setting,value
"O=c1oc2cc3occc3cc2c2ccncc12 [Compound 1a, Pyrido (3,4-c) furo (3,2-g) coumarin]","forward mutations as a function of surviving fractions compared with 3-CPs, 8-MOP and 4,5',8-TMeP",[1],"markedly less mutagenic than 3-CPs and the bifunctional compounds 8-MOP and 4,5', 8-TMeP"
same,forward mutations as a function of UVA doses compared with 3-CPs,[1]; 5×10^-6 M versus 3-CPs at 5×10^-5 M,comparable to those obtained with 3-CPs at 5×10^-5 M
same,photoreactivity on yeast strains,[2],very photoreactive
same,sensitivity of pso2 mutant compared with wild type,[2]; photo-addition,same sensitivity as the wild type
same,inhibition capacity (RNA) compared with 3-CPs,[3],much more than 3-CPs
same,inhibition capacity (RNA) compared with 8-MOP,[3],slightly more powerful than 8-MOP
same,His+ reversions rate compared with 3-CPs,[4],less than that observed after the treatment with 3-CPs
same,"His+ reversions rate compared with 8-MOP and 4,5',8-TMeP",[4],"very much less than that observed after treatment with the bifunctional agents 8-MOP and 4,5', 8-TMeP"
same,LD10 (dose which leaves 10% survive),[5]; UVA,1800 J/cm2
same,considerable photosensitivity in V79 cells,[5]; UVA,considerable photosensitivity
same,relative antiproliferatory effect,[5]; UVA,"compared to 8-MOP, a higher antiproliferatory effect; also recorded: comparable to that of bifunctional furocoumarins"
same,diminution of cell survival in absence of radiation,[5]; no radiation,no diminution of cell survival
same,complexation with DNA,[6],considerable complexation
same,solubility in the DNA relative to mixture of alcohol and water,[6],at least 10 factor
same,erythema at 5 J/cm2,"[7]; 10 micrograms/cm2, 2 hours before UVA 5 J/cm2",no precocious or delayed erythema was observed
same,duration of erythema,[7]; [20],18 days
same,time of appearance of erythema,[7]; [20],72 h
same,erythema at 20 J/cm2,"[7]; 10 micrograms/cm2, UVA 20 J/cm2 through glass plate",slight erythema
same,desquamation or local pain,[7]; UVA 20 J/cm2,no desquamation or local pain
same,systolic pulse of the capillaries at erythematic zones (reflective photoplethysmography),[7]; UVA 20 J/cm2,doubling of the systolic pulse
same,erythematogenicity (conclusion),[7]; in vivo,not erythmatogenic in conditions of irradiation customarily used in human therapy; also recorded: very mildly erythmatogenic
same,"pigmentogenic properties, 1b versus 1a",[8],pigmentogenic
same,pigmentation of normal skin,"[8]; three normal patients, total UVA doses of 140 J/cm2","very slight pigmentation, hardly visible, in only two of the three patients"
same,photochemical stability,[9],good photochemical stability
same,rate of induction of cytoplasmic mutation,[10],greater than 50%
same,form of DNA after renaturation (cross-links),"[11]; 10^-5 M, 365 nm, two doses (30% and 5% survival rate)",remains in single chain form after renaturation
same,functional type (mono/bifunctional),[11]; pso2 mutant and direct examination of DNA,mono functional type
same,"antipsoriatic action, third patient",[12]; 30 μg/cm2 two hours before UVA,did not have a detectable antipsoriatic action
same,erythema or secondary effect during treatments,[12]; 30 micrograms/cm2,no erythema or secondary effect was observed
same,hyperpigmentation,[12]; 30 micrograms/cm2,hyperpigmentation was found
same,total UVA dose to complete whitening,[12]; [21],50 J/cm2
same,whitening of treated zones,[12]; [21],complete whitening of the zones treated
same,decrease of squamae,[12]; [22],slight decrease of the squamae
same,reduction of infiltration,[12]; [22],tangible reduction of the infiltration
same,antipsoriatic activity (conclusion),[12]; applied locally,good antipsoriatic activity
same,mutagenicity compared with 3-carbethoxypsoralen (conclusion),[13],less mutagenic than 3-carbethoxypsoralen
same,induction of biadditions on the DNA,[14],cannot induce biadditions on the DNA
same,non-renaturating fraction,[14]; UVA incident dose ranging up to 27 kJ/m2,100%
same,formation of cross-links in the DNA (conclusion),[15],incapable of forming cross-links in the DNA
same,inhibition capacity (DNA) compared with 3-CPs,[16],much more than 3-CPs
same,inhibition capacity (DNA) compared with 8-MOP,[16],slightly more powerful than 8-MOP
same,photoaffinity for DNA in vivo compared with 3-CPs,[17],makedly much high than that of monofunctional furocoumarin 3-CPs
same,photoaffinity for DNA in vivo relative to 8-MOP,[17],about 10 times
same,photoaffinity in respect to DNA compared with 8-MOP (conclusion),[17],markedly greater than that of 8-MOP
same,coefficient of molecular absorption at 365 nm,[18],notably a higher coefficient of molecular absorption at 365 nm
same,"photoreactivity compared with 4,5',8-trimethylpsoralen (conclusion)",[19],"close to that of 4,5'-8-trimethylpsoralen"
same,induction of lethal effects compared with 8-MOP,"[19]; 5×10^-5 M, 365 nm (UVA)",activity close to that of 8-methoxypsoralen
same,activity on cell survival relative to 8-MOP,"[19]; 5×10^-6 M, survival curves",2.5 times
same,photodynamic activity (oxygen dependent) on induction of lethal damages,[19]; yeast,do not exert on the yeast photodynamic activity
